Read-outs that look alike come from different tables or passages of the source.
Experiments:
[1] = target: T1, mouse PXR (Mus musculus, UniProt O54915); assay: Transfection-based reporter assay in CV-1 cells, mouse PXR; conditions: 50 μM, tamoxifen 5 μM (FIG. 7B)
T1 sequence (O54915 1-431): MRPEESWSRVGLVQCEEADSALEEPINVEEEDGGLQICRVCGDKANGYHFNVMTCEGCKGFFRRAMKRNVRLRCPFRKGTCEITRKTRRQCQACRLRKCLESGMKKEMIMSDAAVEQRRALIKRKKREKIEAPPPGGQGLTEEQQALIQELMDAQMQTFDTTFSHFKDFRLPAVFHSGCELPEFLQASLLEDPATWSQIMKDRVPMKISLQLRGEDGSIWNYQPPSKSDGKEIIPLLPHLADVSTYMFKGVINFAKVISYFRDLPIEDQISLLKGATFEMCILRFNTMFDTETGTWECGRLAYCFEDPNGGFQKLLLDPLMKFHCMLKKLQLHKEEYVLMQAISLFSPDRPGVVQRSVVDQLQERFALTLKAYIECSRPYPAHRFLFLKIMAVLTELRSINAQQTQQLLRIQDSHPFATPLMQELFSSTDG
Source text: FIGS. 7A-C are bar graphs illustrating the ability of a panel of compounds to activate a representative of three members of the nuclear receptor superfamily, human SXR (FIG. 7A); mouse PXR (FIG. 7B); and human estrogen receptor alpha (hERα; FIG. 7C).

[2] = target: T2, SXR (Homo sapiens, UniProt O75469)
T2 sequence (O75469 1-434): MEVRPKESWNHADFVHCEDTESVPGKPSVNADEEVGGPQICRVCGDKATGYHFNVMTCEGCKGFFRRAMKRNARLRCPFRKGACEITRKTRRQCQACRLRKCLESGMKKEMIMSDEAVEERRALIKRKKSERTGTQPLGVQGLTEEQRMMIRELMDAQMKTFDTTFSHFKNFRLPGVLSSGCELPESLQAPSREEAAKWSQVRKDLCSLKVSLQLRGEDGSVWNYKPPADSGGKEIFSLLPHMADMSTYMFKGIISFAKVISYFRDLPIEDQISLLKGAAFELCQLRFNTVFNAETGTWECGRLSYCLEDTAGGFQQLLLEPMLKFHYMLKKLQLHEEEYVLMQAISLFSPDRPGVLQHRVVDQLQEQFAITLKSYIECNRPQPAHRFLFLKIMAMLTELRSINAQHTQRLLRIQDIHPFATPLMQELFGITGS
T2 sequence (P19793 1-462 partner): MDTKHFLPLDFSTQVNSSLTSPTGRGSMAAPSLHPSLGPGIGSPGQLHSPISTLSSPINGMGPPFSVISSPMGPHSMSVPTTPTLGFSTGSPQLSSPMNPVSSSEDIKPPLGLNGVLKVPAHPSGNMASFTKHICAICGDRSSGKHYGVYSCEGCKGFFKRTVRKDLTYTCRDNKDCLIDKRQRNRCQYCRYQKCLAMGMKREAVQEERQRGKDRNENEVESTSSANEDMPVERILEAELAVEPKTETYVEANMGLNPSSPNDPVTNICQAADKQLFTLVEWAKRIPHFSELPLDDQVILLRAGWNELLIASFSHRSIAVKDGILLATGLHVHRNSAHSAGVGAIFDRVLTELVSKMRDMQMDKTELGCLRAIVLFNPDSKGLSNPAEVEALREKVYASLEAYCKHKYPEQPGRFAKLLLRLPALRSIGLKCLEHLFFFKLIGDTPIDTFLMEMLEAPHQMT
Source text: (§4) Thus, the protein coding region of SXR was PCR amplified and subcloned into NcoI and BamH1 sites of the vector pCDG1 (see Blumberg et al., supra). During this process the putative initiator Leu was converted to Met with a Kozak consensus sequence CCATGG.

[3] = target: T3, SXR (Homo sapiens, UniProt O75469); remark: listed apart in the source
T3 sequence (O75469 1-434): T2 sequence (O75469 1-434)
Description: (§1) The PCR-amplified sequences and target mutagenesis were confirmed by DNA sequencing.
(§2) All compounds were purchased from Sigma.
(§3) A panel of natural and synthetic steroid and nonsteroid compounds were tested for their ability to activate SXR and/or PXR in transfection-based assays using primary rat hepatocytes as recipient cells and the cellular promoters of the rat CYP3A23 gene or the human CYP3A4 gene as reporters.

[4] = target: T2, SXR; assay: Transfection-based reporter assay in CV-1 cells, GAL4-SXR or full-length SXR; set-up: Activation of SXR response elements (DR-3, DR-4, DR-5) by full-length SXR: dose or concentration left out as unconfirmed; conditions: for Activation of SXR in transfection-based assays: GAL4-SXR LBD chimera or full-length SXR, CV-1 cells, steroids at high doses, up to 50 mM [sic]; for Activation of SXR response elements (DR-3, DR-4, DR-5) by full-length SXR: cotransfection, panel of steroids as printed (FIG. 4)
Source text: as §4

[5] = clinical trials, of 2510 patients; cited from earlier work
[6] = target: T4, endogenous PXR (Rattus norvegicus, UniProt Q9R1A7); assay: Human CYP3A4 cellular promoter reporter in primary rat hepatocytes, endogenous receptor; conditions: rodent cellular environment (FIG. 8B)
T4 sequence (Q9R1A7 1-431): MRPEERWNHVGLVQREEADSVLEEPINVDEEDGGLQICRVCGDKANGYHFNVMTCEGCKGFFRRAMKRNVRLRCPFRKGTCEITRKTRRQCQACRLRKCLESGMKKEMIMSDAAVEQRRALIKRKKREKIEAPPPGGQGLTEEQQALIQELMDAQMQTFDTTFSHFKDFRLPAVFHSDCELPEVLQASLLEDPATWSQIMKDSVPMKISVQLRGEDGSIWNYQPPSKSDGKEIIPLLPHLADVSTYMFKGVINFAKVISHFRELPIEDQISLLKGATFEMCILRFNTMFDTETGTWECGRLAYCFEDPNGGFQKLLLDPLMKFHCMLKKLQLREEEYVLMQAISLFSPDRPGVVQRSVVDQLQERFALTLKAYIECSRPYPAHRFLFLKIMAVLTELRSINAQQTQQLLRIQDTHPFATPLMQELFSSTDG
Source text: as §1, §2

[7] = target: T4, endogenous PXR; conditions: hepatocytes
Description: as §1, §2, §3

[8] = system: CYP3A11 gene; conditions: single dose 24 h before sacrifice
Description: The animals were allowed free access to food and water at all times. […] When necessary, mice were treated with a single intraperitoneal injection of DEX (50 mg/kg), PCN (40 mg/kg), or CTZ (50 mg/kg).
To detect specific transcripts, [^32P]-cDNA probes labeled by Random Primer Labeling Kit (Boringher) were hybridized to the membranes. The probe used to detect transgene contains both the SXR cDNA and the SV40 sequences. […] The filters were subsequently stripped and rehybridized with a murine glyceraldehyde-3-phosphate dehydrogenase (GAPDH) cDNA probe for RNA loading normalization.
Tissues were harvested 24 h later and subjected to Northern blot analysis.

C[C@]12CC[C@H]3[C@@H](CCC4=CC(=O)CC[C@@]43C)[C@@H]1CC[C@@H]2O [testosterone]
Activation of mouse PXR [1]: similarly activated
Activation of SXR in transfection-based assays [2]: activated

C[C@]12CC[C@@H]3c4ccc(O)cc4CC[C@H]3[C@@H]1CC[C@@H]2O [estradiol, 17β-estradiol]
Activation of mouse PXR [1]: similarly activated
Induction of CYP3A23 promoter reporter with co-transfection of SXR [3]: significant induction
Activation of human SXR by compounds known to induce CYP3A4 ([4]; 50 μM, tamoxifen 5 μM (FIG. 7A)): most potent activators
Activation of SXR in transfection-based assays [4]: remarkably effective activators
Activation of SXR response elements (DR-3, DR-4, DR-5) by full-length SXR [4]: among the best activators

Cc1c(C)c2c(c(C)c1O)CCC(C)(COc1ccc(CC3SC(=O)NC3=O)cc1)O2 (stereo not shown) [troglitazone]
Incidence of hepatotoxicity (alanine aminotransferase level > three times the upper limit of normal) [5]: 1.9%

CC(=O)[C@H]1[C@H](C#N)C[C@H]2[C@@H]3CC=C4C[C@@H](O)CC[C@]4(C)[C@H]3CC[C@@]21C [PCN, pregnenolone-16-carbonitrile]
Activation of mouse PXR [1]: preferentially activated
Activation of human CYP3A4 promoter reporter via endogenous PXR [6]: can be activated
Activation of CYP3A23 promoter reporter in the absence of SXR [7]: most potent and efficacious tested activators
Activation of CYP3A23 promoter reporter with mutated DR-3 element (DR3/M1, DR3/M2) [3]: abolished
Inducibility of CYP3A23 promoter reporter with DR-3 replaced by IR-6 element (DR3/IR6) [3]: rescueS the inducibility
Induction of CYP3A23 promoter reporter with co-transfection of SXR [3]: remained unchanged
Activation of SXR in transfection-based assays [4]: activated
Activation of SXR response elements (DR-3, DR-4, DR-5) by full-length SXR [4]: among the best activators
Activation of human SXR by compounds known to induce CYP3A4 [2]: weak activator
Induction of liver CYP3A11 expression in Alb-SXR transgenic mice ([8]; RIF 5 mg/kg, BRL 20 mg/kg, troglitazone and ciglitazone 150 mg/kg by gavage, CTZ 50 mg/kg, PCN 40 mg/kg i.p.): equally efficacious CYP3A11 inducer
Induction of liver CYP3A11 expression in wild type / nontransgenic mice ([8]; same doses as in transgenic mice): equally efficacious CYP3A11 inducer

— US6911537B2, “Xenobiotic compound modulated expression systems and uses therefor” (The Salk Institute for Biological Studies, priority 1998, dated 2005)
